This note sets out measurements from PubChem BioAssay AID652144 (Broad Institute, 2013).

Records with an inconclusive call do not appear. Active and inactive are the calls of the source. How the calls were made is not given here.

The AC50 is the concentration giving half of the maximal activity seen.

Some test systems named below: U-251; HT-29; HUVEC; SNB-75; SR; CCRF-CEM; LOX-IMVI; HeLA; SNB-19; C2C12.
Assay in all cases: viability reduction measured by resazurin – cell-based, Alamar Blue fluorescence, multiple timepoints, mechanism study for HRAS target identification project, profiling panel (AID 652144)
Holding throughout (settings): Cancer/normal cell panel viability, 8-48 h
(The colour change of resazurin is a common sign of viable cells or microbes.)

On to `Cc1onc(C(=O)N2CCN(C(c3ccc(Cl)cc3)c3ccc(Cl)cc3)CC2)c1[N+](=O)[O-]`, for which the AC50 in the test on U-251 is > 70000 nM (inactive); with HT-29 it was 963 nM; with SNB-75 it was 687 nM; with SR it was 142 nM; with CCRF-CEM it was 144 nM; with LOX-IMVI, 103 nM. The outcome in the test on HUVEC was inactive.

For the molecule `CCC(=O)N(c1ccc(OC)c(Cl)c1)C(C(=O)NCCc1ccccc1)c1cccs1` (centres undefined), the result with U-251, with LOX-IMVI and in the test on SNB-19 was inactive. In addition, the AC50 with HT-29 and with HeLA was > 70000 nM (inactive) throughout.

For the molecule `Cc1onc(C(=O)N2CCN(C(c3ccncc3)c3ccncc3)CC2)c1[N+](=O)[O-]`, the result with U-251, in the test with HT-29, in the test on HUVEC, in the test on HeLA, with SNB-75 and with SR was inactive. Besides, the result in the test with CCRF-CEM, with C2C12, with LOX-IMVI and with SNB-19 was inactive.

Regarding `COc1ccc(N(C(=O)CCl)C(C(=O)NCCc2ccccc2)c2cccs2)cc1Cl` (centres undefined), the AC50 in the test on U-251 is 896 nM; with HT-29 it was 162 nM; with HUVEC it was 8940 nM; with HeLA, 547 nM; in the test on SNB-75, 286 nM; in the test on SR, 61.8 nM. Further, the AC50 in the test with CCRF-CEM is 78.5 nM; in the test with C2C12, 842 nM; in the test on LOX-IMVI, 40.5 nM; in the test with SNB-19, 1170 nM.

`COC(=O)c1ccc([C@@H]2c3[nH]c4ccccc4c3C[C@@H](C(=O)OC)N2C(=O)CCl)cc1`: the AC50 in the test with U-251 is 1060 nM; with HT-29 it was 177 nM; in the test with HeLA it was 573 nM; in the test with SNB-75 it was 355 nM; in the test with SR, 32.9 nM; with CCRF-CEM, 50.2 nM. Further, the values for the AC50 with C2C12 and in the test with LOX-IMVI were 101 nM and 31 nM, respectively.

For `CC(C)(C)OC(=O)NCCOCCOCCOc1ccc(N(C(=O)CCl)C(C(=O)NCCc2ccccc2)c2cccs2)cc1Cl` (centres undefined), the AC50 was 1350 nM in the test on U-251; 457 nM in the test on HT-29; 13700 nM in the test with HUVEC; 650 nM with HeLA; 686 nM with SNB-75; 95.1 nM in the test with SR. The AC50 with CCRF-CEM was 86.5 nM; in the test with C2C12, 442 nM; in the test with LOX-IMVI, 83.4 nM; in the test on SNB-19, 1720 nM.

Turning to `C#CCCCC(=O)NCCOCCOCCOc1ccc(N(C(=O)CCl)C(C(=O)NCCc2ccccc2)c2cccs2)cc1Cl` (centres undefined), the concentration at half-maximal activity (AC50) is 6810 nM in the test with U-251; 2860 nM with HT-29; 4490 nM with HeLA; 3560 nM in the test with SNB-75; 885 nM with SR; 997 nM with CCRF-CEM. The AC50 in the test with C2C12 was 5420 nM; in the test on LOX-IMVI, 421 nM; with SNB-19 it was 4450 nM.
